How the values were obtained:
Assay in all cases: Competitive isoTOP-ABPP, cell lysates
Format in all cases: binding
ADA C75 (P00813) = target: T1, ADA C75 (P00813) (Homo sapiens, UniProt P00813)
T1 sequence (P00813 1-363): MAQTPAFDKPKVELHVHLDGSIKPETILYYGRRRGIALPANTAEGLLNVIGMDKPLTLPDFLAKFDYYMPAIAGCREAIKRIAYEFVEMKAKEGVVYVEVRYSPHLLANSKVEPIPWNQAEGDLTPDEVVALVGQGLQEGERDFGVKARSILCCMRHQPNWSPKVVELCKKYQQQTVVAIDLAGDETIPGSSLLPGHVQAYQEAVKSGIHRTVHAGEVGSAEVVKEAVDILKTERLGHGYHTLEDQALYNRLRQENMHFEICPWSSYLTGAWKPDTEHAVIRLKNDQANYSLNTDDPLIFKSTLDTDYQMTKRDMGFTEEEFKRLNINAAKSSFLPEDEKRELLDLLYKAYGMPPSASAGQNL

PDIA6 C55 (Q15084) = target: T2, PDIA6 C55 (Q15084) (Homo sapiens, UniProt Q15084); details: for isoTOP-ABPP reactivity profile ratio, Q15084_C55: 500 μm
T2 sequence (Q15084 20-440): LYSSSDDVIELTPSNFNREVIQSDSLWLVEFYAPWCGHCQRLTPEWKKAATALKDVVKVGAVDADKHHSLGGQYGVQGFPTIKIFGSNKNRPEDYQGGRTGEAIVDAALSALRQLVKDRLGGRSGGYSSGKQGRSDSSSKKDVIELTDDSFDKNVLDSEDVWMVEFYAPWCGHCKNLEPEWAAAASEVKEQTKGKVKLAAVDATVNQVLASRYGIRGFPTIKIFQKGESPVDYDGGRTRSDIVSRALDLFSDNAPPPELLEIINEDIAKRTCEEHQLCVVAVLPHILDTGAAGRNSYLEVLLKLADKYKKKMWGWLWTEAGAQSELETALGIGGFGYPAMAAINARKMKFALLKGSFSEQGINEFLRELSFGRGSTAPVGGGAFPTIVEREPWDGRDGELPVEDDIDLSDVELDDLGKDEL

PCK2 C306 (Q16822) = target: T3, PCK2 C306 (Q16822) (Homo sapiens, UniProt Q16822)
T3 sequence (Q16822 33-640): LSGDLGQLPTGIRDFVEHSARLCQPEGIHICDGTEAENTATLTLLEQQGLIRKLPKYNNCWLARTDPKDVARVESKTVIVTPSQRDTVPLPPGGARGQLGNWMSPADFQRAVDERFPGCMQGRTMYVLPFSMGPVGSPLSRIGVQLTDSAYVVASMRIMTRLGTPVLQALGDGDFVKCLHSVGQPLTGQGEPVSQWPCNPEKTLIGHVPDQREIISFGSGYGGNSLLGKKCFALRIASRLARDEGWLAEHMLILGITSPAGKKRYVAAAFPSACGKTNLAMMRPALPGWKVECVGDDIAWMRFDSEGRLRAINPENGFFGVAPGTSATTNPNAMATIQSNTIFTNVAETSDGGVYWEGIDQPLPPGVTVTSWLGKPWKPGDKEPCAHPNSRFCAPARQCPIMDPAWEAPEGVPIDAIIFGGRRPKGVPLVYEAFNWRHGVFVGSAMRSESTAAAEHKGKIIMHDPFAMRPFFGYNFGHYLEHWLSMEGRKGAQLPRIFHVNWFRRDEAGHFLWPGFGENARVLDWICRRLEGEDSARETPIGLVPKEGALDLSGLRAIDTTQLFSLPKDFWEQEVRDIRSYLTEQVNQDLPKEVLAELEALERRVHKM

Compound	isoTOP-ABPP reactivity profile ratio, P00813_C75 (ADA C75 (P00813); 500 μm, in-vitro_ramos)	isoTOP-ABPP reactivity profile ratio, Q15084_C55 (PDIA6 C55 (Q15084); in-vitro_ramos)	isoTOP-ABPP reactivity profile ratio, Q15084_C55 (PDIA6 C55 (Q15084); in-vitro_ramos_231)	isoTOP-ABPP reactivity profile ratio, Q16822_C306 (PCK2 C306 (Q16822); 500 μm, in-vitro_ramos)	isoTOP-ABPP reactivity profile ratio, Q16822_C306 (PCK2 C306 (Q16822); 500 μm, in-vitro_ramos_231)	isoTOP-ABPP ratio (reactivity profile), P00813_C75 (ADA C75 (P00813); 500 μm in-vitro ramos)	isoTOP-ABPP ratio (reactivity profile), Q15084_C55 (PDIA6 C55 (Q15084); 500 μm in-vitro ramos)	isoTOP-ABPP ratio (reactivity profile), Q15084_C55 (PDIA6 C55 (Q15084); 500 μm in-vitro ramos_231)	isoTOP-ABPP ratio (reactivity profile), Q16822_C306 (PCK2 C306 (Q16822); 500 μm in-vitro ramos)	isoTOP-ABPP ratio (reactivity profile), Q16822_C306 (PCK2 C306 (Q16822); 500 μm in-vitro ramos_231)	isoTOP-ABPP reactivity ratio, P00813_C75 (ADA C75 (P00813); 500 μm, in-vitro_ramos)	isoTOP-ABPP reactivity ratio, Q16822_C306 (PCK2 C306 (Q16822); 500 μm, in-vitro_ramos)
O=C(CCl)Nc1ccc(-c2ccccc2)cc1 [compound 52]	1.2	1.8	1.1	1.6	1.3							
O=C(CCl)N1CCC(C(O)(c2ccccc2)c2ccccc2)CC1 [compound 20]						1.5	2.0	1.7	1.6	2.5		
CCN(CC)c1ccc(S(N)(=O)=O)cc1NC(=O)CCl [compound 30]							2.2		1.2		3.1	1.1

Source: patent publication US10670605B2, “Cysteine reactive probes and uses thereof” (The Scripps Research Institute, priority 2015, dated 2020)
